By mass density is commonly meant mass per unit of volume.

For eight compounds, mass density results are on record in the NIST ThermoML archive (doi:10.1021/acs.jced.5b00592).

The conditions of this data set: 101.33 kPa, Liquid, Vibrating tube method.

Numbers after ± are expanded uncertainties.

As for `CCCCCCCCn1cc[n+](C)c1.O=S(=O)([O-])C(F)(F)F` [1-octyl-3-methylimidazolium trifluoromethanesulfonate], the mass density by setting is: (288.15 K) 1200.83 ± 0.44 kg/m3; (293.15 K) 1197.12 ± 0.44 kg/m3; (298.15 K) 1193.39 ± 0.43 kg/m3; (303.15 K) 1189.64 ± 0.43 kg/m3; (308.15 K) 1185.9 ± 0.43 kg/m3; (313.15 K) 1182.17 ± 0.43 kg/m3. For the same compound, the mass density is 1178.44 ± 0.42 kg/m3 (318.15 K); 1174.72 ± 0.42 kg/m3 (323.15 K); 1171.02 ± 0.42 kg/m3 (328.15 K); 1167.34 ± 0.42 kg/m3 (333.15 K); 1163.66 ± 0.41 kg/m3 (338.15 K); 1159.99 ± 0.41 kg/m3 (343.15 K). Moreover, the mass density (348.15 K) stood at 1156.33 ± 0.41 kg/m3 and the mass density (353.15 K) is on record as 1152.68 ± 0.41 kg/m3.

Regarding `CCC(=O)[O-].C[NH2+]CCO` [2-hydroxy-N-methylethanaminium propionate], the mass density is, setting by setting: (293.15 K) 1068.13 ± 0.99 kg/m3; (303.15 K) 1061.16 ± 0.97 kg/m3; (313.15 K) 1054.19 ± 0.96 kg/m3; (323.15 K) 1047.12 ± 0.94 kg/m3; (333.15 K) 1039.96 ± 0.93 kg/m3; (343.15 K) 1032.71 ± 0.92 kg/m3. The mass density (353.15 K) is recorded as 1025.34 ± 0.9 kg/m3.

Regarding `CCCC[n+]1ccccc1.O=S(=O)([N-]S(=O)(=O)C(F)(F)F)C(F)(F)F` [1-butylpyridinium bis[(trifluoromethyl)sulfonyl]imide], the mass density runs as follows: (288.15 K) 1457.74 ± 1.9 kg/m3; (293.15 K) 1452.97 ± 1.9 kg/m3; (298.15 K) 1448.23 ± 1.9 kg/m3; (303.15 K) 1443.6 ± 1.9 kg/m3; (308.15 K) 1438.91 ± 1.9 kg/m3; (313.15 K) 1434.25 ± 1.9 kg/m3. Also, the mass density reads like this: (318.15 K) 1429.62 ± 1.9 kg/m3; (323.15 K) 1425 ± 1.9 kg/m3; (328.15 K) 1420.41 ± 1.8 kg/m3; (333.15 K) 1415.82 ± 1.8 kg/m3; (338.15 K) 1411.23 ± 1.8 kg/m3; (343.15 K) 1406.74 ± 1.8 kg/m3. Also, the mass density (348.15 K) was determined as 1402.15 ± 1.8 kg/m3 and the mass density (353.15 K) was 1397.61 ± 1.8 kg/m3.

Turning to `CCCC(=O)[O-].C[NH2+]CCO` [N-methyl-2-hydroxyethylammonium butanoate], the mass density (293.15 K) is 1038.03 ± 0.93 kg/m3; the mass density (303.15 K) is 1031.04 ± 0.91 kg/m3; the mass density (313.15 K) came to 1024.03 ± 0.9 kg/m3; the mass density (323.15 K) is listed as 1016.9 ± 0.88 kg/m3; the mass density (333.15 K) was found to be 1009.68 ± 0.87 kg/m3; the mass density (343.15 K) is recorded as 1002.38 ± 0.86 kg/m3. Further, the mass density (353.15 K) was determined as 994.97 ± 0.84 kg/m3.

As to `CCCC[n+]1ccn(C)c1.O=S(=O)([N-]S(=O)(=O)C(F)(F)F)C(F)(F)F`, the mass density is, setting by setting: (288.15 K) 1443.95 ± 4 kg/m3; (293.15 K) 1439.13 ± 4 kg/m3; (298.15 K) 1434.32 ± 4 kg/m3; (303.15 K) 1429.51 ± 4 kg/m3; (308.15 K) 1424.73 ± 4 kg/m3; (313.15 K) 1419.98 ± 4 kg/m3. The mass density is recorded as 1415.23 ± 4 kg/m3 (318.15 K); 1410.5 ± 4 kg/m3 (323.15 K); 1405.78 ± 4 kg/m3 (328.15 K); 1401.09 ± 4 kg/m3 (333.15 K); 1396.41 ± 4 kg/m3 (338.15 K); 1391.74 ± 4 kg/m3 (343.15 K). In addition, the mass density (348.15 K) is 1387.07 ± 4 kg/m3 and the mass density (353.15 K) worked out at 1382.43 ± 4 kg/m3.

Turning to `CC(=O)[O-].C[NH2+]CCO` [N-methyl-2-hydroxyethylammonium acetate], the mass density runs as follows: (293.15 K) 1099.6 ± 1.1 kg/m3; (303.15 K) 1093 ± 1 kg/m3; (313.15 K) 1086.4 ± 1 kg/m3; (323.15 K) 1079.7 ± 1 kg/m3; (333.15 K) 1072.9 ± 1 kg/m3; (343.15 K) 1066.1 ± 1 kg/m3. In addition, the mass density (353.15 K) is recorded as 1059.1 ± 1 kg/m3.

As for `CCCCCCCCn1cc[n+](C)c1.O=S(=O)([N-]S(=O)(=O)C(F)(F)F)C(F)(F)F`, the mass density runs as follows: (288.15 K) 1329.44 ± 0.54 kg/m3; (293.15 K) 1324.99 ± 0.54 kg/m3; (298.15 K) 1320.54 ± 0.53 kg/m3; (303.15 K) 1316.08 ± 0.53 kg/m3; (308.15 K) 1311.64 ± 0.53 kg/m3; (313.15 K) 1307.23 ± 0.52 kg/m3. In addition, the mass density is, setting by setting: (318.15 K) 1302.82 ± 0.52 kg/m3; (323.15 K) 1298.45 ± 0.52 kg/m3; (328.15 K) 1294.08 ± 0.51 kg/m3; (333.15 K) 1289.73 ± 0.51 kg/m3; (338.15 K) 1285.38 ± 0.51 kg/m3; (343.15 K) 1281.05 ± 0.5 kg/m3. The mass density is given as 1276.72 ± 0.5 kg/m3 (348.15 K) and 1272.41 ± 0.5 kg/m3 (353.15 K).

Turning to `CCCCCCCCCCCCn1cc[n+](C)c1.O=S(=O)([N-]S(=O)(=O)C(F)(F)F)C(F)(F)F`, the mass density is listed as 1238.73 ± 1.4 kg/m3 (288.15 K); 1234.45 ± 1.4 kg/m3 (293.15 K); 1230.2 ± 1.4 kg/m3 (298.15 K); 1225.93 ± 1.3 kg/m3 (303.15 K); 1221.7 ± 1.3 kg/m3 (308.15 K); 1217.48 ± 1.3 kg/m3 (313.15 K). Besides, the mass density runs as follows: (318.15 K) 1213.28 ± 1.3 kg/m3; (323.15 K) 1209.09 ± 1.3 kg/m3; (328.15 K) 1204.95 ± 1.3 kg/m3; (333.15 K) 1200.8 ± 1.3 kg/m3; (338.15 K) 1196.67 ± 1.3 kg/m3; (343.15 K) 1192.54 ± 1.3 kg/m3. Also, the mass density reads like this: (348.15 K) 1188.43 ± 1.3 kg/m3; (353.15 K) 1184.33 ± 1.2 kg/m3.
